Experiments:
Test in all cases: Large panel kinase profiling
Type in all cases: biochemical
Details in all cases: 1 μM test article, 1 mM ATP
FGFR1 = FGFR1 (Homo sapiens, UniProt P11362)
Procedure, shortened: (§1)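 Profiling across the panel relied on the PhosphoSens CSox-Sensor format. A compound concentration of 1 μM and an ATP level of 1 mM were used throughout.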

CHUK/IKKA = target: T1, CHUK/IKKA (Homo sapiens, UniProt O15111)
T1 construct: AssayQuant Technologies, Inc. (ran the panel)
T1 sequence (O15111 1-745): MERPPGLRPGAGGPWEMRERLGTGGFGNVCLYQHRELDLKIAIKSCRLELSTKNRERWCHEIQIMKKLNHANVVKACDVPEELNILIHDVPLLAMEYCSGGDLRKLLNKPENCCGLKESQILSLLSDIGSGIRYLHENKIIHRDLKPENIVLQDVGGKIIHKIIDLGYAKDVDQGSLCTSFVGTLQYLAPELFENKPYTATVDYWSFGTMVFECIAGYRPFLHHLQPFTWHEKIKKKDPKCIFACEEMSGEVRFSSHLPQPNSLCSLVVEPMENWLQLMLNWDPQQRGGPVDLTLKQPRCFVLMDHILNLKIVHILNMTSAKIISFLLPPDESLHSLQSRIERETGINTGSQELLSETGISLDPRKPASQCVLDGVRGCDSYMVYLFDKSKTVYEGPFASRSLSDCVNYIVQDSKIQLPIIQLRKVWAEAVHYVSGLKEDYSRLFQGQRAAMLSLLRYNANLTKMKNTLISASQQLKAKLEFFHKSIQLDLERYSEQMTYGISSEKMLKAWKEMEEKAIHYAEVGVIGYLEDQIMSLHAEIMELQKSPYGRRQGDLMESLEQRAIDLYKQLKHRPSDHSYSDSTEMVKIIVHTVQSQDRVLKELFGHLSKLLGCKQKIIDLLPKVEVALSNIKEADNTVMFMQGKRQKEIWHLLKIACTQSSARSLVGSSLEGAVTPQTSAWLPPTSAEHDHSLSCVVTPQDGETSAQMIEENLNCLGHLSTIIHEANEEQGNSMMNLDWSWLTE
Procedure, shortened: as §1

CSK = target: T2, CSK (Homo sapiens, UniProt P41240)
T2 construct: AssayQuant Technologies, Inc. (service laboratory)
T2 sequence (P41240 whole entry, species assumed): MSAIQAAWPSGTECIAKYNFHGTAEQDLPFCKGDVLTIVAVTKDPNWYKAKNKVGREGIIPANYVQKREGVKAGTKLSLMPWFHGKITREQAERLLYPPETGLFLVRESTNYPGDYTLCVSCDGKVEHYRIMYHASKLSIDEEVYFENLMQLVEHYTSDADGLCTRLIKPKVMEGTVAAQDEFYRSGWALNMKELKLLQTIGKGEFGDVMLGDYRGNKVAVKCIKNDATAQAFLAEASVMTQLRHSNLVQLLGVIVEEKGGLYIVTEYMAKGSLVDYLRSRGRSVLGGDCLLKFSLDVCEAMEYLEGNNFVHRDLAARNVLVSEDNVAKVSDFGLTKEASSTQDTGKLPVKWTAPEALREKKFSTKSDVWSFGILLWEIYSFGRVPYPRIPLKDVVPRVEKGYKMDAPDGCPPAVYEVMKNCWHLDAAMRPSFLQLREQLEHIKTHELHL
Procedure, shortened: as §1

NEK1 = target: T3, NEK1 (Homo sapiens, UniProt Q96PY6)
T3 construct: AssayQuant Technologies, Inc. (assay service)
T3 sequence (Q96PY6 1-1258): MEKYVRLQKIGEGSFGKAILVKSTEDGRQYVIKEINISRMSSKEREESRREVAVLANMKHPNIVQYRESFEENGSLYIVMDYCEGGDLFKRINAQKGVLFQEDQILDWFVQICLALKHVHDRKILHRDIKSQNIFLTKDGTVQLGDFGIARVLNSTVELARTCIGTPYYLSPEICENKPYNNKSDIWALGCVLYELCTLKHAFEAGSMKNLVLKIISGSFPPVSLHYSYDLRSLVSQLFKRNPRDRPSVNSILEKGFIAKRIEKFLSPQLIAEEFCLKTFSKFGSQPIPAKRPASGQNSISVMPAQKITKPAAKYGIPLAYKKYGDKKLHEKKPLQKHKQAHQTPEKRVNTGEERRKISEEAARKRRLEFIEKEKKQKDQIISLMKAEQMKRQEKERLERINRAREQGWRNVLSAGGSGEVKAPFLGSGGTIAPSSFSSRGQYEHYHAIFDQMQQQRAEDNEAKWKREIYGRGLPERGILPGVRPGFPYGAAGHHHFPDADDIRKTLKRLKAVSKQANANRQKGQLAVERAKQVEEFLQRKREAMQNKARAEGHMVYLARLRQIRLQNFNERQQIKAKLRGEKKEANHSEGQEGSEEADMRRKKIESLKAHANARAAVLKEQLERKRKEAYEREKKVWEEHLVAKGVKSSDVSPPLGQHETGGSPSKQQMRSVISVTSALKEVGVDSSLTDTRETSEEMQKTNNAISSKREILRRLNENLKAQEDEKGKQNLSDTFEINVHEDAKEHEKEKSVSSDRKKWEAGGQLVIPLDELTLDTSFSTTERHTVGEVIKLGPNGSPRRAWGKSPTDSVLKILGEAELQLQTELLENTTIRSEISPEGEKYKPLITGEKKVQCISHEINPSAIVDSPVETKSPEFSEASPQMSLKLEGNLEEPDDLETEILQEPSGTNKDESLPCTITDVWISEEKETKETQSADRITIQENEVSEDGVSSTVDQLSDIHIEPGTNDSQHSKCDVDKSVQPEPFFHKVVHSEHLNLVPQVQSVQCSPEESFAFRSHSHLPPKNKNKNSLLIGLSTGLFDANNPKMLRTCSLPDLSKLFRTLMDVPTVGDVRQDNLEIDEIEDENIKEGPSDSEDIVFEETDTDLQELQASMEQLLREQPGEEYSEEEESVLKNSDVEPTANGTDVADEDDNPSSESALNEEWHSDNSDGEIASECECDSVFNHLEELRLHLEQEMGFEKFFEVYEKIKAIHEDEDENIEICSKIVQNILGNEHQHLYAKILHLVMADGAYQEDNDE
Procedure, shortened: as §1

FGFR1, sequence (P11362 22-822, species assumed): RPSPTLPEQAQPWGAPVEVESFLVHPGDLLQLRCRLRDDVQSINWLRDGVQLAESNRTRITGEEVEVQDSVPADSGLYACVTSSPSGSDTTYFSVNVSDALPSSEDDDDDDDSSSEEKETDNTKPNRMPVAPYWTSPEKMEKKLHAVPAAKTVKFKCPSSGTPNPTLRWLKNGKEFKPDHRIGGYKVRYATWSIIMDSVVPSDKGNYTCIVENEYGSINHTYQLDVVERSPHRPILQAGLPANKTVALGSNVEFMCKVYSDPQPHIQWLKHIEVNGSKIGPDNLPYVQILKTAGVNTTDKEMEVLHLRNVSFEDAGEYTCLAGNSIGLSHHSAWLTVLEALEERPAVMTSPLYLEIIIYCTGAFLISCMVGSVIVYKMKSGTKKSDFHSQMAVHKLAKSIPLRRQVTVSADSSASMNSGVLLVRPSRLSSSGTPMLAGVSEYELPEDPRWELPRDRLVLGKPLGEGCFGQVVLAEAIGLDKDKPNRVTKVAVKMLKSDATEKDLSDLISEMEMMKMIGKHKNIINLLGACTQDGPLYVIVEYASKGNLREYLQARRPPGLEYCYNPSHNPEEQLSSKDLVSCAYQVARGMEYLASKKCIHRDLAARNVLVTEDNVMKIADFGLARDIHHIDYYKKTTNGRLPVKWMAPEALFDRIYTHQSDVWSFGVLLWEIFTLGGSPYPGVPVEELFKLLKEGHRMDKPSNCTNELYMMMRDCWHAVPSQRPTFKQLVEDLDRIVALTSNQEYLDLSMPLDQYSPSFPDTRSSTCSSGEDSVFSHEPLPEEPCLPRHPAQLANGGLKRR

Row | SMILES | inhibition at 1 µM (FGFR1) [%] | inhibition at 1 µM (CHUK/IKKA) [%] | inhibition at 1 µM (CSK) [%] | inhibition at 1 µM (NEK1) [%]
1 | C=CC(=O)N1CCCC(c2c(F)cc(C(N)=O)c3[nH]c4c(c23)CCCCC4)C1 (single isomer, unassigned) [Compound 5-6] | 18.4 | 4 | -9.4 | -3.1
2 | C=CC(=O)N1CCC[C@@H](c2c(F)cc(C(N)=O)c3[nH]c4c(c23)CC2(CC4)CC2)C1 [Compound 6-2, (S)-5-(1-acryloylpiperidin-3-yl)-6-fluoro-1,2,4,9-tetrahydrospiro[carbazole-3,1′-cyclopropane]-8-carboxamide] | 6.6 | -36.4 | -6.4 | 7.9
3 | C=CC(=O)N1CCC[C@@H](c2c(F)cc(C(N)=O)c3[nH]c4c(c23)CCC4)C1 [Compound 10-2, (S)-8-(1-acryloylpiperidin-3-yl)-7-fluoro-1,2,3,4-tetrahydrocyclo-penta[b]indole-5-carboxamide] | 8.7 | -14.5 | -8.5 | 11.8

From patent US20220009920A1 (GB005, Inc., priority 2020, published 2022)
